Test system: MCF-7 breast cancer cells
Experiment: Microarray gene expression analysis (Agilent whole human genome 4 x 44K; compound vs DMSO, LIMMA log2 fold change)
Assay type: cell-based
Conditions: Apoptosis genes

## Cn1ncc2c(N3CCOCC3)nc(-c3cccc(O)c3)nc21 [ETP-45658]
Gene 6899
  TBX1 log2FC: -0.252
Gene 6910
  TBX5 log2FC: 0.253
Gene 6926
  TBX3 log2FC: -0.702
Gene 6934
  TCF7L2 log2FC: 0.069
Gene 6997
  TDGF1 log2FC: -0.229
Gene 7001
  PRDX2 log2FC: 0.238
Gene 7013
  TERF1 log2FC: 0.607
Gene 7015
  TERT log2FC: -0.174
Gene 7020
  TFAP2A log2FC: -0.422
Gene 7021
  TFAP2B log2FC: -0.228
Gene 7023
  TFAP4 log2FC: 0.268
Gene 7039
  TGFA log2FC: -0.305
Gene 7040
  TGFB1 log2FC: -0.640
Gene 7043
  TGFB3 log2FC: 0.297
Gene 7046
  TGFBR1 log2FC: 0.107
Gene 7048
  TGFBR2 log2FC: 0.848
Gene 7052
  TGM2 log2FC: -0.663
Gene 7057
  THBS1 log2FC: -0.941
Gene 7067
  THRA log2FC: 0.422
Gene 7072
  TIA1 log2FC: 0.264
Gene 7073
  TIAL1 log2FC: 0.293
Gene 7074
  TIAM1 log2FC: -0.410
Gene 7076
  TIMP1 log2FC: -0.529
Gene 7082
  TJP1 log2FC: 0.201
Gene 7088
  TLE1 log2FC: 0.258
Gene 7097
  TLR2 log2FC: -0.108
Gene 7098
  TLR3 log2FC: 0.853
Gene 7101
  NR2E1 log2FC: -0.094
Gene 7110
  TMF1 log2FC: 0.560
Gene 7124
  TNF log2FC: -1.647
Gene 7126
  TNFAIP1 log2FC: -0.176
Gene 7128
  TNFAIP3 log2FC: -0.659
Gene 7132
  TNFRSF1A log2FC: -1.037
Gene 7153
  TOP2A log2FC: 0.987
Gene 7157
  TP53 log2FC: -0.193
Gene 7159
  TP53BP2 log2FC: 0.300
Gene 7161
  TP73 log2FC: -0.503
Gene 7164
  TPD52L1 log2FC: 0.379
Gene 7178
  TPT1 log2FC: 0.799
Gene 7184
  HSP90B1 log2FC: 0.583
Gene 7185
  TRAF1 log2FC: -0.690
Gene 7187
  TRAF3 log2FC: -0.696
Gene 7188
  TRAF5 log2FC: 0.441
Gene 7189
  TRAF6 log2FC: -0.110
Gene 7204
  TRIO log2FC: 0.329
Gene 7227
  TRPS1 log2FC: 0.712
Gene 7262
  PHLDA2 log2FC: -2.933
Gene 7291
  TWIST1 log2FC: 0.401
Gene 7293
  TNFRSF4 log2FC: -0.061
Gene 7301
  TYRO3 log2FC: -0.084
Gene 7311
  UBA52 log2FC: 0.322
Gene 7314
  UBB log2FC: 0.069
Gene 7316
  UBC log2FC: 0.294
Gene 7320
  UBE2B log2FC: 0.582
Gene 7323
  UBE2D3 log2FC: -0.312
Gene 7349
  UCN log2FC: 0.210
Gene 7351
  UCP2 log2FC: 0.279
Gene 7374
  UNG log2FC: -0.235
Gene 7409
  VAV1 log2FC: 0.573
Gene 7410
  VAV2 log2FC: 0.047
Gene 7415
  VCP log2FC: -0.341
Gene 7416
  VDAC1 log2FC: -0.389
Gene 7421
  VDR log2FC: -0.801
Gene 7423
  VEGFB log2FC: -0.219
Gene 7428
  VHL log2FC: 0.156
Gene 7466
  WFS1 log2FC: -0.738
Gene 7474
  WNT5A log2FC: 0.075
Gene 7476
  WNT7A log2FC: -0.084
Gene 7477
  WNT7B log2FC: -0.527
Gene 7480
  WNT10B log2FC: -0.451
Gene 7481
  WNT11 log2FC: -0.151
Gene 7483
  WNT9A log2FC: 0.073
Gene 7486
  WRN log2FC: 0.441
Gene 7490
  WT1 log2FC: -0.635
Gene 7498
  XDH log2FC: 0.061
Gene 7507
  XPA log2FC: 0.451
Gene 7516
  XRCC2 log2FC: -0.596
Gene 7518
  XRCC4 log2FC: 0.589
Gene 7529
  YWHAB log2FC: 0.414
Gene 7531
  YWHAE log2FC: 0.239
Gene 7532
  YWHAG log2FC: -0.492
Gene 7533
  YWHAH log2FC: -0.469
Gene 7534
  YWHAZ log2FC: -0.139
Gene 7564
  ZNF16 log2FC: 0.343
Gene 7703
  PCGF2 log2FC: -0.266
Gene 7818
  DAP3 log2FC: 0.449
Gene 7832
  BTG2 log2FC: -1.109
Gene 7849
  PAX8 log2FC: 0.414
Gene 7855
  FZD5 log2FC: -0.562
Gene 7857
  SCG2 log2FC: 0.617
Gene 8013
  NR4A3 log2FC: 0.735
Gene 8022
  LHX3 log2FC: 0.038
Gene 8045
  RASSF7 log2FC: 0.255
Gene 8061
  FOSL1 log2FC: -2.502
Gene 8065
  CUL5 log2FC: -0.432
Gene 8087
  FXR1 log2FC: 0.876
Gene 8091
  HMGA2 log2FC: -1.656
Gene 8200
  GDF5 log2FC: -0.419
Gene 8241
  RBM10 log2FC: -0.320
Gene 8312
  AXIN1 log2FC: 0.481
Gene 8382
  NME5 log2FC: 0.189
Gene 8398
  PLA2G6 log2FC: -0.247
Gene 8406
  SRPX log2FC: 0.110
Gene 8428
  STK24 log2FC: -0.121
Gene 8439
  NSMAF log2FC: 0.488
Gene 8445
  DYRK2 log2FC: -0.546
Gene 8451
  CUL4A log2FC: 0.552
Gene 8452
  CUL3 log2FC: 0.137
Gene 8453
  CUL2 log2FC: 0.454
Gene 8454
  CUL1 log2FC: 0.479
Gene 8462
  KLF11 log2FC: 1.337
Gene 8473
  OGT log2FC: 0.232
Gene 8517
  IKBKG log2FC: -0.398
Gene 8535
  CBX4 log2FC: -0.217
Gene 8539
  API5 log2FC: -0.382
Gene 8565
  YARS log2FC: -0.265
Gene 8567
  MADD log2FC: 0.423
Gene 8633
  UNC5C log2FC: -0.082
Gene 8644
  AKR1C3 log2FC: 0.209
Gene 8648
  NCOA1 log2FC: 0.390
Gene 8655
  DYNLL1 log2FC: -0.944
Gene 8660
  IRS2 log2FC: 0.732
Gene 8678
  BECN1 log2FC: 0.486
Gene 8682
  PEA15 log2FC: 0.593
Gene 8692
  HYAL2 log2FC: -0.387
Gene 8717
  TRADD log2FC: 0.340
Gene 8718
  TNFRSF25 log2FC: -0.499
Gene 8737
  RIPK1 log2FC: -0.187
Gene 8738
  CRADD log2FC: -0.101
Gene 8739
  HRK log2FC: 0.385
Gene 8767
  RIPK2 log2FC: 0.592
Gene 8771
  TNFRSF6B log2FC: -1.094
Gene 8772
  FADD log2FC: -0.522
Gene 8784
  TNFRSF18 log2FC: -0.321
Gene 8793
  TNFRSF10D log2FC: -0.444
Gene 8795
  TNFRSF10B log2FC: -0.935
Gene 8797
  TNFRSF10A log2FC: -0.657
Gene 8805
  TRIM24 log2FC: 0.836
Gene 8829
  NRP1 log2FC: -0.517
Gene 8831
  SYNGAP1 log2FC: -0.373
Gene 8835
  SOCS2 log2FC: 0.750
Gene 8837
  CFLAR log2FC: -0.499
Gene 8841
  HDAC3 log2FC: -0.217
Gene 8846
  ALKBH1 log2FC: -0.105
Gene 8848
  TSC22D1 log2FC: 0.485
Gene 8851
  CDK5R1 log2FC: -0.154
Gene 8854
  ALDH1A2 log2FC: 0.218
Gene 8870
  IER3 log2FC: -1.789
Gene 8874
  ARHGEF7 log2FC: 0.162
Gene 8877
  SPHK1 log2FC: -0.334
Gene 8878
  SQSTM1 log2FC: 0.788
Gene 8879
  SGPL1 log2FC: -0.071
Gene 8887
  TAX1BP1 log2FC: 1.376
Gene 8915
  BCL10 log2FC: 0.158
Gene 8930
  MBD4 log2FC: 0.489
Gene 8996
  NOL3 log2FC: 0.514

From paper PMC4303209, “A novel phosphatidylinositol 3-kinase (PI3K) inhibitor directs a potent FOXO-dependent, p53-independent cell cycle arrest phenotype characterized by the differential induction of a subset of FOXO-regulated genes” (Breast Cancer Research : BCR, 2014)
